Measurements from patent US20050214870A1, “Assay” (priority 2001, published 2005).

How the values were obtained:
[1] = cited from earlier work
human HERG K+ channel [2] = target: T1, human HERG K+ channel (Homo sapiens, UniProt Q12809)
Experimental: (§1) Adherent HEK293 cells expressing human HERG, were grown in MEM Earles medium (Life Technologies) supplemented with 10% foetal calf serum (PAA Laboratories), 2 mM L-glutamine (Sigma), 1 mM sodium pyruvate (Sigma), 0.4 mg/ml G418 (Life Technologies) and an addition of 1× non-essential amino acids (Life Technologies). The cells were grown at 37° C. in a humidified atmosphere with 5% CO2 in T225 cm^3 flasks.
(§2) All cells were pelleted, washed twice with PBS and snap-frozen on dry ice prior to storage at −80° C. until required.
(§3) Cell membrane fractions were prepared from frozen aliquots of cells. All procedures were carried out at 4° C. unless otherwise stated. Frozen aliquots of cells were thawed at room temperature and resuspended in homogenisation buffer (50 mM Tris base, 10 mM KCl, 1-1.2 mM MgCl2, pH 7.4). The cells were then disrupted by homogenisation in an Omni LabTek homogeniser at 20,000 rpm for 30 seconds. The homogenate was centrifuged for 20 minutes at 48,000×g (4° C., Sorvall RC5B centrifuge) and the supernatant removed. […] Protein content was determined using a Coomassie Blue based protein assay kit. […]
The scintillation proximity assay (SPA) was carried out under identical buffer conditions to those used in the filtration assay. […] Beads were allowed to settle for a minimum of 30 minutes before plates were counted for retained radioactivity on a TopCount NTX scintillation counter.

human HERG K+ channel [3] = target: T1, human HERG K+ channel; remark: listed apart in the source
Experimental: as §1, §2, §3
In each experiment, triplicate assays were routinely performed and the data were averaged. Specific binding was analysed by nonliiear regression fit using GraphPad Prism software (GraphPad, San Diego). […]

T1 sequence (Q12809 whole entry): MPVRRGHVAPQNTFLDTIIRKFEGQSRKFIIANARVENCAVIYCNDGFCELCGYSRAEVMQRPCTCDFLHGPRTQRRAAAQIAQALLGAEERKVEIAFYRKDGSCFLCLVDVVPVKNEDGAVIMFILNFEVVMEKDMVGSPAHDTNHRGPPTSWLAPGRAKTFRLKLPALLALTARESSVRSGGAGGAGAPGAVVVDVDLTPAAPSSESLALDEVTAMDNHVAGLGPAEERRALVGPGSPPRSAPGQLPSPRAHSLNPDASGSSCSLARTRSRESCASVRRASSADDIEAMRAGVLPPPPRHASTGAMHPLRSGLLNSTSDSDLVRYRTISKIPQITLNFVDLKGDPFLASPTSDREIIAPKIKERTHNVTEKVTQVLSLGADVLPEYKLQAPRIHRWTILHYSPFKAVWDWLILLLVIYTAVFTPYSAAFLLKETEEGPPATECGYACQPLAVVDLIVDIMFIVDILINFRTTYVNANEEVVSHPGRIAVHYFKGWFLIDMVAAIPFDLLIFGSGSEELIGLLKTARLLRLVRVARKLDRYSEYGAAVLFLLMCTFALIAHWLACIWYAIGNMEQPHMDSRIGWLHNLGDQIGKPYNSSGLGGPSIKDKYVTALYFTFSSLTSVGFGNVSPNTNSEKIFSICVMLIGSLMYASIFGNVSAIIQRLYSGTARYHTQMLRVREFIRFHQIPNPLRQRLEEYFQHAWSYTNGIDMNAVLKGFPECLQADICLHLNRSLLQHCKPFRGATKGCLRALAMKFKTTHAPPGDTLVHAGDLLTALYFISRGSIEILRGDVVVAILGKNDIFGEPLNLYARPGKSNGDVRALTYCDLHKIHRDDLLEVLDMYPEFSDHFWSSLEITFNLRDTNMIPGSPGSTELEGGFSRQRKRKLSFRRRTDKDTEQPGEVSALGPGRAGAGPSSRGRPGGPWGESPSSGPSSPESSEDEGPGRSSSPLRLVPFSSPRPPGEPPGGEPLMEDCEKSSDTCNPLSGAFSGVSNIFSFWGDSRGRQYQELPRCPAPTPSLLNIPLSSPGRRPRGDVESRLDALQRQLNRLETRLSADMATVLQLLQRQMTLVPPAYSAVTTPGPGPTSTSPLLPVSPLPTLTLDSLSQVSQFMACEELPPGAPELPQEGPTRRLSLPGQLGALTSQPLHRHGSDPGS

Row | Compound | effect on QT interval of the electrocardiogram in man [1] | SPA 96 pKi (human HERG K+ channel [2]) | SPA 384 pKi (human HERG K+ channel [2]) | Filter binding pKi (human HERG K+ channel [3])
1 | COc1cc(N)c(Cl)cc1C(=O)NC1CCN(CCCOc2ccc(F)cc2)CC1OC (stereo not shown) [Cisapride] | prolong the QT interval |  |  | 
2 | CC(C)NC[C@@H](O)c1ccc(NS(C)(=O)=O)cc1 [D-Sotalol] |  | <5 | <5 | <5
